Laboratory results as given in publication PMC7956620 (Molecules, 2021).
Where two headings read alike, the source gives them in different places.

Molecular target: T1, human 5-HT3A receptor (Homo sapiens, UniProt P46098)
T1 construct: host or cells: Xenopus laevis oocytes injected with in vitro transcribed mRNA
T1 sequence (P46098 24-478): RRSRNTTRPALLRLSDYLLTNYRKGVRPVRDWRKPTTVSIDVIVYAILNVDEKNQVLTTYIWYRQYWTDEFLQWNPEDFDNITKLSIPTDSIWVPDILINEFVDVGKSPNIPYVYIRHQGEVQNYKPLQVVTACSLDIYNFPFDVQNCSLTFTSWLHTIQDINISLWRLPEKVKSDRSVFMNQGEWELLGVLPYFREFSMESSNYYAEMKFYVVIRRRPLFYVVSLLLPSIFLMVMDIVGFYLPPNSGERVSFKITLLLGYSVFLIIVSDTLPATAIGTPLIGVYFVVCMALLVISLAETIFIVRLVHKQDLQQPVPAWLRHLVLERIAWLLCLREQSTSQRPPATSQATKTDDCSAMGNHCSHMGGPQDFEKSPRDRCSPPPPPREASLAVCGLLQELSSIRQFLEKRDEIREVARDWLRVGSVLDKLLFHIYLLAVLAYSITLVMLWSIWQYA
Assay: cell-based
Assay type: cell-based
Settings: for inhibition of voltage ramp current activated by 5-HT: 100 µM 5-HT and EC
Protocol: Human 5-hydroxytryptamine (serotonin) receptor 3A cDNA (Genebank number: BC004453) was obtained from OriGene (Rockville, MD, USA). Figure 1A represents the chemical structure of two ergot alkaloids, EG and EC, obtained from Sigma-Aldrich (St. Louis, MO, USA). These ergot alkaloids were diluted in bath solution after dissolving in dimethyl sulfoxide (DMSO) for use as stock solutions. The final treatment concentration of DMSO was less than 0.01%. Xenopus laevis frogs were obtained from the Korean Xenopus Resource Center for Research (KXRCR000001, Chuncheon, Gangwondo, Korea), and other agents were purchased from Sigma-Aldrich.
To isolate oocytes, female Xenopus laevis were put into a container filled with ice and left for about one hour. When the blood vessels contracted and fell into a state similar to hibernation, the abdomen was incised, and the ovaries were removed and cut into small pieces in Ca^2+-free OR2 solution (82.5 mM NaCl, 2.5 mM KCl, 1 mM MgCl2, and 5 mM HEPES, pH 7.4) with 2 mg/mL collagenase. After a 2 h agitation to digest the follicle membranes, isolated oocytes in stages Ⅴ and Ⅵ were selected and washed repeatedly. The selected oocytes were maintained in ND96 incubation solution (96 mM NaCl, 2 mM KCl, 1.8 mM CaCl2, 1 mM MgCl2, 5 mM HEPES, 2.5 mM sodium pyruvate, and 50 µg/mL gentamycin, pH 7.4) at 16–18 °C. The solution containing the oocytes was changed twice a day and stored in a shaking incubator. Under the microscope, the end of a glass capillary was broken and fitted with a 20 µm diameter needle and filled with mineral oil, discharging air bubbles from the tip. When the Xenopus oocytes were ready for injection, 50 ng of mRNA was injected with a nanoliter injector (Drummond Scientific, Vernon Hills, IL, USA). The recording was started after two days of sufficient shaking incubation in ND96 solution. Surgery, microinjections, and the other handling of Xenopus laevis followed the standard protocols.
The oocytes in which mRNA was expressed during the incubation period allowed for the estimation of channel or receptor properties for observing drug and ligand potential interactions using a two-electrode voltage clamp (OC-725C; Warner Instruments, Hamden, CT, USA) and Digidata (1322A; Molecular Devices, Sunnyvale, CA, USA). The two-electrode voltage clamp had voltage and current electrodes that stably maintained the potential and delivered the transmembrane potential and high current. […] A computer transferred the converted output amplitude of the voltage clamp amplifiers to an input digital converter using pClamp 10 software (Axon Instruments, Union City, CA, USA). The voltage and current electrodes were filled with 3 M KCl (0.3–0.7 MΩ) and analyzed at a −80 mV holding potential. The oocytes were placed in the chamber and exposed to a ND96 solution at a flow rate of 2 mL per minute. In the electrophysiological experiments, the voltage ramp recording was performed at room temperature, and a current from −80 to +60 mV was applied to determine the current and voltage relationships. Inward peak traces of the 5-HT3A receptor and voltage ramp traces were converted to a value through Clampfit 9.0 (Molecular Devices, San Jose, CA, USA).
In the experiments, all data were represented as the mean ± SEM (standard error of the mean) of the 5-HT-stimulated inward peak in the 5-HT3A receptors. […] All curves plotted through the Hill equation were generated using Origin Pro 7.0 (OriginLab, Northampton, MA, USA). The significance of differences between the control and chanoclavine treatment was determined according to the p-value in the Student’s t-test. p-values of less than 0.05 were considered statistically significant.

## CN[C@@H]1Cc2c[nH]c3cccc(c23)[C@H]1/C=C(\C)CO [chanoclavine]
10 µM compound with 100 µM 5-HT, −80 mV, read-out: inhibition of I5-HT
  inhibition at 10 µM: 4 ± 3.8%
30 µM compound with 100 µM 5-HT, −80 mV, read-out: inhibition of I5-HT
  inhibition at 30 µM: 7.9 ± 4.1%
100 µM chanoclavine, wild type, read-out: Inhibition Percentage (%)
  inhibition at 100 µM: 42.5 ± 5.7%
100 µM compound with 100 µM 5-HT, −80 mV, read-out: inhibition of I5-HT
  inhibition at 100 µM: 42.5 ± 9.7%
200 µM compound with 100 µM 5-HT, −80 mV, read-out: inhibition of I5-HT
  inhibition at 200 µM: 61.6 ± 6.1%
300 µM compound with 100 µM 5-HT, −80 mV, read-out: inhibition of I5-HT
  inhibition at 300 µM: 75 ± 4.5%
5-HT 1 to 100 µM with 30 µM EC, −80 mV
  Imax of normalized 5-HT concentration-response current: 94.6 ± 24.4
5-HT 1 to 100 µM with 100 µM EC, −80 mV
  Imax of normalized 5-HT concentration-response current: 60 ± 2.2
+30 mV
  inhibition of voltage ramp current activated by 5-HT: 47.9 ± 3.4%
+60 mV
  inhibition of voltage ramp current activated by 5-HT: 49.5 ± 4%
Hill fit, co-application with 100 µM 5-HT, −80 mV
  maximum inhibition (Imax): 83.6 ± 12.6%
co-application with 5-HT, read-out: half-maximal inhibitory response concentration (IC50) for block of 5-HT-induced 5-HT3A response
  IC50: 107 µM
Competing at the same rate as 5-HT
  current relative to the control group: about 50%
Varied 5-HT concentration, fixed 30 or 100 µM chanoclavine
  manner of regulation of 5-HT3A-receptor channel activity: competitive
−30 mV
  inhibition of voltage ramp current activated by 5-HT: 40.9 ± 1.1%
−80 mV holding potential, data not shown
  effect of compound alone (without 5-HT): no change
